The values below are quoted from earlier work in patent US12630504B2, “Phenethylamine derivatives, compositions, and methods of use” (CYBIN IRL LIMITED, priority 2020, dated 2026).

For `NCCc1ccc2c(c1)OCO2` [MDPEA, 3,4-methylenedioxyphenethylamine], under “due to extensive first-pass metabolism”, the biological activity entry was “biologically inactive”.

In the case of `COc1cc(CCN)cc(OC)c1OC` [Mescaline, 3,4,5-trimethoxyphenethylamine], the “oral dose at which orally active” value (oral, only at high doses owing to low brain bioavailability) is listed as about 300 mg.
